According to patent publication US20240142467A1, “Use of Biomarkers in the Treatment of Fibrotic Conditions with a PDE4B-inhibitor” (Boehringer Ingelheim International GmbH, priority 2022, published 2024):
Where two headings read alike, the source gives them in different places.

System: IPF-rc-stimulated primary human small airway epithelial cells (SAEC)
Test: Biomarker release of IPF-rc-stimulated small airway epithelial cells (ELISA of supernatants)
Format: cell-based
Settings: for inhibition at 10 µM / IC50: Homo sapiens; for inhibition at 10 µM: SAEC, highest concentration 10 μM; for IC50: SAEC from 5 donors, 30 min pre-stimulation, supernatants 72 hrs after stimulation
Protocol: Small airway epithelial cells of primary human origin at passage 4 were seeded in PneumaCult-Ex Plus complete medium onto rat tail collagen type I (30 μg/mL in PBS) coated 24-well plates.
After incubation for 24 hrs at 37° C. and 5% CO2 cells were pre-stimulated with the PDE4-inhibitor of formula A′ for 30 min in different concentrations in PneumaCult-Ex Plus starving medium.
Afterwards an IPF-relevant cytokine cocktail (Schruf E, Schroeder V, Le H Q, Schönberger T, Raedel D, Stewart E L, Fundel-Clemens K, Bluhmki T, Weigle S, Schuler M, Thomas M J, Heilker R, Webster M J, Dass M, Frick M, Stierstorfer B, Quast K, Garnett J P. Recapitulating idiopathic pulmonary fibrosis related alveolar epithelial dysfunction in a human iPSC-derived air-liquid interface model. FASEB J. 2020 June; 34(6):7825-7846) was added to induce fibrotic changes. 72 hrs after stimulation supernatants were collected and analyzed using R&D DuoSet ELISAs following the manufacturers protocol.
To determine the inhibitory potency of the PDE4-inhibitor of formula A′ on biomarker release of IPF-rc-stimulated primary human small airway epithelial cells, the supernatants of the cell culture from 5 different donors were analyzed.

[O-][S@+]1CCc2nc(N3CCC(c4ncc(Cl)cn4)CC3)nc(NC3(CO)CCC3)c21 [Compound of formula A′]
inhibition at 10 µM (read-out: maximal inhibition of CTGF release): 75% | inhibition at 10 µM (read-out: maximal inhibition of MMP7 release): 63% | inhibition at 10 µM (read-out: maximal inhibition of OPN release): 67% | inhibition at 10 µM (read-out: maximal inhibition of sICAM release): 39% | IC50 (read-out: IC50 of IPF-rc-induced release of CTGF): ~370 nM | IC50 (read-out: IC50 of IPF-rc-induced release of MMP7): ~4400 nM | IC50 (read-out: IC50 of IPF-rc-induced release of OPN): ~1100 nM | IC50 (read-out: IC50 of IPF-rc-induced release of sICAM): ~537 nM | inhibition of the release of PAI1 (plasminogen activator inhibitor 1) (IPF-rc-stimulated SAEC): concentration dependent manner
